Reference: ChEMBL document CHEMBL1122675, “Topical carbonic anhydrase inhibitors” (J Med Chem, 1984)
Values after ≈ are worked out from the molar mass of the structure shown.

Key:
[1] = Acid dissociation constant was determined.; format: ADME
[2] = Compound was tested for Octanol / pH 7.2 phosphate buffer distribution coefficient (N=2-3); format: physicochemical
[3] = Solubility at a pH 7.2 phosphate buffer, 37 degrees celsius (N=6); format: physicochemical
[4] = target: Carbonic anhydrase (Homo sapiens) (UniProt P00918+P43166+P00915+P07451+P23280+O43570+Q9ULX7+Q16790+P22748+Q8N1Q1+Q9Y2D0+P35218)
Description: Compound was tested for relative in vitro carbonic anhydrase activity from human red blood cell.

[5] = Corneal permeability coefficient was determined; format: ADME
[6] = phosphate buffer, read-out: Solubility

Row | Structure (SMILES) | pKa ([1]; read-out: pKa) | logD [2] | solubility [3, 6] [µg/mL] | CAI activity [4] | Permeability coefficient [5] [×10⁻⁶ cm/s] | solubility ([3]; buffer) [µg/mL] | pKa [1]
1 | CCOc1ccc2nc(S(=O)(=O)NC)sc2c1 | 9.1 | 2.59 | 64 (≈ 235 µM) | 0.0064 | – | – | –
2 | NS(=O)(=O)c1nc2ccccc2s1 | 7.9 | 1.33 | – | – | 36.2 | 1021 (≈ 4760 µM) | –
3 | CCOc1ccc2nc(S(N)(=O)=O)sc2c1 [ETHOXZOLAMIDE] | – | 2.06 | 60 (≈ 232 µM) | – | 43.9 | – | –
4 | NS(=O)(=O)c1nc2ccc(O)cc2s1 | 7.81 | 1.12 | – | – | – | 1560 (≈ 6770 µM) | 9.26
5 | NS(=O)(=O)c1nc2ccc(Cl)cc2s1 | 7.72 | 2.1 | 607 (≈ 2440 µM) | 1.23 | – | – | –
6 | CCOc1ccc2nc(S(=O)(=O)NC(C)=O)sc2c1 | 2.95 | -1.02 | 11500 (≈ 38300 µM) | 0.0041 | – | – | –
